{"source": "patent US8735443B2", "about": "“Method of treating diabetes-related vascular complications” (Kuwait University, priority 2008, dated 2014)", "key": {"[1]": {"system": "nox-1", "test": "Aortic mRNA expression by real-time PCR, nox-1", "format": "in vivo, rat", "details": "aorta of LA-treated GK rats", "method": "Further, with regard to quantitative real-time polymerase chain reactions (PCR) in the study, total RNA from the arterial samples was isolated using TRIZOL® reagent, and RNA integrity was verified by agarose gel electrophoresis and quantified by spectrophotometry. Reverse transcription reaction of total RNA (5 μg) was performed using a superscript 111 first-strand synthesis system. Quantitative real-time PCR was performed using fast SYBR Green QPCR. […]\nThe housekeeping gene beta-actin was used for internal normalization. Fidelity of the PCR reaction was determined by melting temperature analysis. PCR efficiency for each primer pair was determined by quantitating amplification with increasing concentration of template cDNA. […] RNA expression of target genes was calculated based on the real-time PCR efficiency E and the threshold crossing point (CP) and is expressed relative to the reference gene beta-actin."}, "[2]": {"system": "control fibroblasts (CFs)", "test": "Cell viability after hydrogen peroxide (Cell Counting Kit-8), control fibroblasts", "format": "cell-based, rat", "details": "lipoic acid 500 μM, Nrf2-dependent", "excerpt": "(§1) To determine the effect of α-lipoic acid on isolated cells from normal and diabetic rats, primary rat fibroblasts were derived from dorsal skin biopsies performed on four diabetic Coto Kakizaki rats (DFs) and four age-matched (12-14 months) and sex-matched (female) Wistar control rats (CFs). After sterilization in povidine solution, the rat skin was washed in sterile water and rinsed in 70% ethanol in phosphate-buffered saline (PBS). The epidermis and dermis were separated following overnight incubation in 0.25% Trypsin/EDTA at 4° C. Samples were washed, diced and digested for thirty minutes at 37° C. in collagenase type I (250 U/ml) dissolved in Dulbecco's modified Eagle medium (DMEM; Invitrogen) containing penicillin (100 U/ml), 2 mM L-glutamine and 26 mM HEPES. After collagenase treatment, the cells were dislodged, centrifuged and resuspended in medium supplemented with 10% fetal bovine serum. The cells were grown under standard conditions, and the medium was changed every three to four days. Control and diabetic fibroblasts were grown under normo-glycemic conditions (5.5 mM glucose) and used in experiments at passage 3 to 5.\n(§2) Fibroblasts were seeded at 1×10^4 cells/well on a 96-well plate. […] Quantification of cell viability was assessed using a Cell Counting Kit-8 (Dojindo, Kumamoto, Japan). […]"}, "[3]": {"system": "NF-κB", "test": "NF-κB expression by western blotting, HEK-293", "format": "cell-based", "details": "HEK-293 (parental cells) exposed to α-lipoic acid", "excerpt": "(§3) Alpha-lipoic acid increased HEK-499 cells, which were engineered to be resistant to chemotherapies and radiotherapies by depleting Raf Kinase inhibitory protein resistance to lethal doses of cisplatin, a chemical used in cancer therapy."}, "[4]": {"system": "ICAM-1", "test": "Aortic mRNA expression by QRT-PCR, ICAM-1", "format": "in vivo, rat", "details": "GK rats, LA therapy", "method": "(§4) An expression of a number of inflammatory markers, including IL-6 and ICAM-1, were measured in control, diabetic and LA-treated diabetic vessels. The results confirmed marked elevation in the vascular expression of both […] and ICAM-1 during diabetes, as shown in FIGS. 11A and 11B. […] Aortic expression of IL-6 is shown in FIG. 11A and aortic expression of intracellular adhesion molecule (ICAM-1) is shown in FIG. 11B. Both were determined using QRT-PCR based techniques."}, "[5]": {"system": "protein-bound carbonyls", "test": "Aortic content of protein-bound carbonyls", "details": "aorta of LA-treated GK rats"}, "[6]": {"system": "cultured arteries", "test": "Cultured arteries of non-diabetic control animals exposed to TNF-α", "design": "species or system rat", "details": "pretreatment with LA"}, "[7]": {"system": "caspase 3/7", "test": "Caspase 3/7 activity in aorta (APO-ONE assay)", "format": "in vivo, rat", "details": "chronic LA treatment, GK rats", "method": "For detection of caspase 3-like activity, protein was isolated and caspase activity was detected in resulting supernatant using an APO-ONE homogenous caspase 3/7 assay (Promega). With regard to subcellular fractionation and western blotting, aortic tissue nuclear extracts were prepared and protein (40 μg) was loaded in each well of […] polyacrylamide gel. Separated polypeptide was transferred to nitrocellulose membrane IBio-Rad) and probed with anti NFκB at a 1:2,000 […]. Chemiluminescent detection was performed by an ECL Western Blotting Detection Kit®."}, "[8]": {"system": "IL-6", "test": "Aortic mRNA expression by QRT-PCR, IL-6", "format": "in vivo, rat", "details": "GK rats, LA therapy", "method": "as §4"}, "[9]": {"system": "NF-κB", "test": "NF-κB expression by western blotting, HEK-499", "format": "cell-based", "details": "HEK-499 cells exposed to α-lipoic acid", "excerpt": "as §3"}, "[10]": {"system": "diabetic fibroblasts (DFs)", "test": "LDH release assay (necrotic cell death) in fibroblasts", "format": "cell-based, rat", "details": "lipoic acid 500 μM, Nrf2-dependent", "excerpt": "as §1, §2"}, "[11]": {"system": "TNF-α", "test": "Plasma TNF-α ELISA", "format": "in vivo, rat", "details": "GK rats, LA chronic therapy", "method": "Plasma TNF-α levels from various experimental groups were determined using a rat TNF-α ELISA kit, and tissue protein content was determined using bovine serum albumin as a standard."}, "[12]": {"system": "NAD(P)H oxidase", "test": "NAD(P)H oxidase activity in aortic homogenates (lucigenin photoemission)", "format": "biochemical, rat", "details": "GK rats after LA therapy", "protocol": "Determination of NAD(P)H oxidase activity in the aorta was determined based on superoxide induced lucigenin photoemission. Enzyme assays were carried out in a final volume of 1 ml. containing (in mM) 50 phosphate buffer; pH 7.0, 1 EGTA, 150 sucrose, 0.5 lucigenin, 0.1 NAD(P)H and tissue homogenate. Enzyme reactions were initiated with the addition of lucigenin. Photoemission, expressed in terms of relative light units (RLU), was measured every 5 min. using a luminometer. All assays were carried out in the dark at room temperature."}}}
{"smiles": "O=C(O)CCCCC1CCSS1", "note": "(stereo not drawn) [LA, alpha-lipoic acid]", "values": [{"measurement": "rate of gene expression of nox-1 subunit", "setting": "[1]", "result": "tended to reduce"}, {"measurement": "protection of cell viability from hydrogen peroxide", "setting": "[2]", "result": "protected"}, {"measurement": "NF-κB expression", "setting": "[3]", "result": "significant increase"}, {"measurement": "diabetic vascular proinflammatory phenotype, aortic expression of ICAM-1", "setting": "[4]", "result": "partially reversed"}, {"measurement": "oxidative stress-mediated damage to protein (protein-bound carbonyls)", "setting": "[5]", "result": "partially reversed"}, {"measurement": "TNF-α-induced abnormalities (O2− generation, caspase 3/7, DNA fragmentation, Ach-induced vasorelaxation)", "setting": "[6]", "result": "partially reversed"}, {"measurement": "reduction of caspase 3/7 in diabetic arteries", "setting": "[7]", "result": 48, "unit": "%"}, {"measurement": "diabetic vascular proinflammatory phenotype, aortic expression of IL-6", "setting": "[8]", "result": "partially reversed"}, {"measurement": "NF-κB expression", "setting": "[9]", "result": "significant increase"}, {"measurement": "LDH release into cell culture media (necrotic cell death) in response to HP", "setting": "[10]", "result": "reduces cell death"}, {"measurement": "diabetes related up-regulation of TNF-α protein (plasma)", "setting": "[11]", "result": "Reversal"}, {"measurement": "NAD(P)H oxidase driven O2− generation in homogenates of diabetic aorta", "setting": "[12]", "result": "significantly attenuated"}]}
